Measurements as given in patent publication US12365692B2, “6-hydroxy-8-oxatricyclo[3.2.1.02,4]octane-2-carboxamide derivatives for inducing chondrogenesis for treating joint damage” (NOVARTIS AG, priority 2018, dated 2025).

System: ALP in NHAC (normal human articular chondrocytes)
Assay: Alkaline Phosphatase (ALP) activity assay: ALP staining and quantitation in NHACs (prevention of chondrocyte hypertrophy)
Format: cell-based
Details: Chondrocyte, 288 h, human IL-1 beta 10 ng/mL, 12 days; for IC50: Fast Blue RR staining, high content imaging; for Emax: read-out: ALP in NHAC (% Efficacy)
Procedure: The compounds of the present invention were evaluated in the Alkaline Phosphatase (ALP) activity assay to determine the ability of the compounds to prevent chondrocyte hypertrophy in normal human articular chondrocytes (NHACs).
Normal human articular chondrocytes (NHACs) were purchased from PromoCell (Heidelberg, Germany) and grown in Chondrocyte Growth Medium (CGM; Lonza, Walkersville, Md.).
NHACs were expanded in Chondrocyte Growth Medium (CGM) from Lonza until they reached a 60-80% confluency. To initiate differentiation, 7,500 cells were plated/well with indicated test compound dose in 384-well Cell Carrier Ultra plates (Perkin Elmer) with DMEM (SH30022—HyClone) containing 10% FBS (35-015-CV—Corning), 1% Pen/Strep antibiotics (SV30010—HyClone), and 1% Normocin (50 mg/mL—InvivoGen). Cells with test compounds were incubated at 37° C., 5% CO2 for 5 hours and then added human IL-1 beta (AF-200-1B—Peprotech) to each well at a final concentration of 10 ng/mL and incubated at 37° C., 5% CO2 for 12 days.
To detect the presence of hypertrophic cells, NHACs were fixed with 4% paraformaldehyde and Hoechst 33342 (Invitrogen) dye for 30 minutes, rinsed in PBS, then stained with Fast Blue RR Salt (F0500—Sigma) with Naphthol AS-MX Phosphate Alkaline Solution, 0.25% (855—Sigma-Aldrich).
The staining was imaged by fluoresecent microscopy, using the 561 nm wavelength, and/or quantified by high content imaging with the ImageXpress Confocal (Molecular Devices, Sunnyvale, CA). Data analyses were performed with a customized multiwavelength cell-scoring application The activity of the compounds of the present invention in the ALP assay is summarized in Table 2.

Compound | IC50 [µM] | Emax [%]
Cn1cc([C@@]23C[C@]2(C(=O)Nc2cc(C(F)(F)F)ccn2)[C@H]2C[C@H](O)[C@@H]3O2)c(C(F)(F)F)n1 (racemic) [Example 43, rac-(1R,2R,4S,5R,6S)-6-hydroxy-4-(1-methyl-3-(trifluoromethyl)-1H-pyrazol-4-yl)-N-(4-(trifluoromethyl)pyridin-2-yl)-8-oxatricyclo[3.2.1.02,4]octane-2-carboxamide] | > 30 | 49
Cn1cc([C@@]23C[C@]2(C(=O)Nc2cc(C(F)(F)F)cc(Cl)n2)[C@H]2C[C@H](O)[C@@H]3O2)c(C(F)(F)F)n1 (racemic) [Example 44, rac-(1R,2R,4S,5R,6S)—N-(6-chloro-4-(trifluoromethyl)pyridin-2-yl)-6-hydroxy-4-(1-methyl-3-(trifluoromethyl)-1H-pyrazol-4-yl)-8-oxatricyclo[3.2.1.02,4]octane-2-carboxamide] | > 30 | 37
Cn1cc([C@@]23C[C@]2(C(=O)Nc2cc(C(F)(F)F)c(Cl)cn2)[C@H]2C[C@H](O)[C@@H]3O2)c(C(F)(F)F)n1 (racemic) [Example 45, rac-(1R,2R,4S,5R,6S)—N-(5-chloro-4-(trifluoromethyl)pyridin-2-yl)-6-hydroxy-4-(1-methyl-3-(trifluoromethyl)-1H-pyrazol-4-yl)-8-oxatricyclo[3.2.1.02,4]octane-2-carboxamide] | > 30 | 46
Cn1cc([C@@]23C[C@]2(C(=O)Nc2cc(C(F)(F)F)cc(C4CC4)n2)[C@H]2C[C@H](O)[C@@H]3O2)c(C(F)(F)F)n1 (racemic) [Example 46, rac-(1R,2R,4S,5R,6S)—N-(6-cyclopropyl-4-(trifluoromethyl)pyridin-2-yl)-6-hydroxy-4-(1-methyl-3-(trifluoromethyl)-1H-pyrazol-4-yl)-8-oxatricyclo[3.2.1.02,4]octane-2-carboxamide] | 27 | 82
Cc1cc(C(F)(F)F)cc(NC(=O)[C@]23C[C@@]2(c2cn(C)nc2C(F)(F)F)[C@H]2O[C@@H]3C[C@@H]2O)n1 (racemic) [Example 47, rac-(1R,2R,4S,5R,6S)-6-hydroxy-4-(1-methyl-3-(trifluoromethyl)-1H-pyrazol-4-yl)-N-(6-methyl-4-(trifluoromethyl)pyridin-2-yl)-8-oxatricyclo[3.2.1.02,4]octane-2-carboxamide] | > 30 | 36
CCOc1cc(C(F)(F)F)cc(NC(=O)[C@]23C[C@@]2(c2cn(C)nc2C(F)(F)F)[C@H]2O[C@@H]3C[C@@H]2O)n1 (racemic) [Example 48, rac-(1R,2R,4S,5R,6S)—N-(6-ethoxy-4-(trifluoromethyl)pyridin-2-yl)-6-hydroxy-4-(1-methyl-3-(trifluoromethyl)-1H-pyrazol-4-yl)-8-oxatricyclo[3.2.1.02,4]octane-2-carboxamide] | > 30 | 40
Cn1cc([C@@]23C[C@]2(C(=O)Nc2cccc(C(F)(F)F)c2)[C@H]2C[C@H](O)[C@@H]3O2)c(C(F)(F)F)n1 (racemic) [Example 49, rac-(1R,2R,4S,5R,6S)-6-hydroxy-4-(1-methyl-3-(trifluoromethyl)-1H-pyrazol-4-yl)-N-(3-(trifluoromethyl)phenyl)-8-oxatricyclo[3.2.1.02,4]octane-2-carboxamide] | > 30 | 35
Cc1c(NC(=O)[C@]23C[C@@]2(c2cn(C)nc2C(F)(F)F)[C@H]2O[C@@H]3C[C@@H]2O)cccc1C(F)(F)F (racemic) [Example 50, rac-(1R,2R,4S,5R,6S)-6-hydroxy-4-(1-methyl-3-(trifluoromethyl)-1H-pyrazol-4-yl)-N-(2-methyl-3-(trifluoromethyl)phenyl)-8-oxatricyclo[3.2.1.02,4]octane-2-carboxamide] | > 30 | 33
Cc1ccc(NC(=O)[C@]23C[C@@]2(c2cn(C)nc2C(F)(F)F)[C@H]2O[C@@H]3C[C@@H]2O)cc1C(F)(F)F (racemic) [Example 51, rac-(1R,2R,4S,5R,6S)-6-hydroxy-4-(1-methyl-3-(trifluoromethyl)-1H-pyrazol-4-yl)-N-(4-methyl-3-(trifluoromethyl)phenyl)-8-oxatricyclo[3.2.1.02,4]octane-2-carboxamide] | > 30 | 45
Cc1cc(NC(=O)[C@]23C[C@@]2(c2cn(C)nc2C(F)(F)F)[C@H]2O[C@@H]3C[C@@H]2O)cc(C(F)(F)F)c1 (racemic) [Example 52, rac-(1R,2R,4S,5R,6S)-6-hydroxy-4-(1-methyl-3-(trifluoromethyl)-1H-pyrazol-4-yl)-N-(3-methyl-5-(trifluoromethyl)phenyl)-8-oxatricyclo[3.2.1.02,4]octane-2-carboxamide] | 21 | 70
Cc1ccc(C(F)(F)F)cc1NC(=O)[C@]12C[C@@]1(c1cn(C)nc1C(F)(F)F)[C@H]1O[C@@H]2C[C@@H]1O (racemic) [Example 53, rac-(1R,2R,4S,5R,6S)-6-hydroxy-4-(1-methyl-3-(trifluoromethyl)-1H-pyrazol-4-yl)-N-(2-methyl-5-(trifluoromethyl)phenyl)-8-oxatricyclo[3.2.1.02,4]octane-2-carboxamide] | > 30 | 23
Cn1cc([C@@]23C[C@]2(C(=O)Nc2cccc(C(F)(F)F)c2F)[C@H]2C[C@H](O)[C@@H]3O2)c(C(F)(F)F)n1 (racemic) [Example 54, rac-(1R,2R,4S,5R,6S)—N-(2-fluoro-3-(trifluoromethyl)phenyl)-6-hydroxy-4-(1-methyl-3-(trifluoromethyl)-1H-pyrazol-4-yl)-8-oxatricyclo[3.2.1.02,4]octane-2-carboxamide] | > 30 | 7
Cn1cc([C@@]23C[C@]2(C(=O)Nc2ccc(F)c(C(F)(F)F)c2)[C@H]2C[C@H](O)[C@@H]3O2)c(C(F)(F)F)n1 (racemic) [Example 55, rac-(1R,2R,4S,5R,6S)-N-(4-fluoro-3-(trifluoromethyl)phenyl)-6-hydroxy-4-(1-methyl-3-(trifluoromethyl)-1H-pyrazol-4-yl)-8-oxatricyclo[3.2.1.02,4]octane-2-carboxamide] | > 30 | 14
Cn1cc([C@@]23C[C@]2(C(=O)Nc2cc(F)cc(C(F)(F)F)c2)[C@H]2C[C@H](O)[C@@H]3O2)c(C(F)(F)F)n1 (racemic) [Example 56, rac-(1R,2R,4S,5R,6S)—N-(3-fluoro-5-(trifluoromethyl)phenyl)-6-hydroxy-4-(1-methyl-3-(trifluoromethyl)-1H-pyrazol-4-yl)-8-oxatricyclo[3.2.1.02,4]octane-2-carboxamide] | > 30 | 30
Cn1cc([C@@]23C[C@]2(C(=O)Nc2cc(C(F)(F)F)ccc2F)[C@H]2C[C@H](O)[C@@H]3O2)c(C(F)(F)F)n1 (racemic) [Example 57, rac-(1R,2R,4S,5R,6S)-N-(2-fluoro-5-(trifluoromethyl)phenyl)-6-hydroxy-4-(1-methyl-3-(trifluoromethyl)-1H-pyrazol-4-yl)-8-oxatricyclo[3.2.1.02,4]octane-2-carboxamide] | > 30 | 24
Cn1cc([C@@]23C[C@]2(C(=O)Nc2ccc(Cl)c(C(F)(F)F)c2)[C@H]2C[C@H](O)[C@@H]3O2)c(C(F)(F)F)n1 (racemic) [Example 58, rac-(1R,2R,4S,5R,6S)—N-(4-chloro-3-(trifluoromethyl)phenyl)-6-hydroxy-4-(1-methyl-3-(trifluoromethyl)-1H-pyrazol-4-yl)-8-oxatricyclo[3.2.1.02,4]octane-2-carboxamide] | > 30 | 29
Cn1cc([C@@]23C[C@]2(C(=O)Nc2cc(Cl)cc(C(F)(F)F)c2)[C@H]2C[C@H](O)[C@@H]3O2)c(C(F)(F)F)n1 (racemic) [Example 59, rac-(1R,2R,4S,5R,6S)-N-(3-chloro-5-(trifluoromethyl)phenyl)-6-hydroxy-4-(1-methyl-3-(trifluoromethyl)-1H-pyrazol-4-yl)-8-oxatricyclo[3.2.1.02,4]octane-2-carboxamide] | > 30 | 35
COc1ccc(NC(=O)[C@]23C[C@@]2(c2cn(C)nc2C(F)(F)F)[C@H]2O[C@@H]3C[C@@H]2O)cc1C(F)(F)F (racemic) [Example 60, rac-(1R,2R,4S,5R,6S)-6-hydroxy-N-(4-methoxy-3-(trifluoromethyl)phenyl)-4-(1-methyl-3-(trifluoromethyl)-1H-pyrazol-4-yl)-8-oxatricyclo[3.2.1.02,4]octane-2-carboxamide] | > 30 | 27
COc1cc(NC(=O)[C@]23C[C@@]2(c2cn(C)nc2C(F)(F)F)[C@H]2O[C@@H]3C[C@@H]2O)cc(C(F)(F)F)c1 (racemic) [Example 61, rac-(1R,2R,4S,5R,6S)-6-hydroxy-N-(3-methoxy-5-(trifluoromethyl)phenyl)-4-(1-methyl-3-(trifluoromethyl)-1H-pyrazol-4-yl)-8-oxatricyclo[3.2.1.02,4]octane-2-carboxamide] | > 30 | 29
